Results from ChEMBL document CHEMBL5678818, “Discovery of potent SOS1 inhibitors that block RAS activation via disruption of the RAS-SOS1 interaction” (Proc Natl Acad Sci U S A, 2019).

Legend:
[1] = system: Receptor-type tyrosine-protein kinase FLT3 (Homo sapiens), P36888 [UNDEFINED MUTATION]; test: Inhibition of FLT3 ITD/F691L mutant (unknown origin) assessed as residual activity at 1000 nM by KINOMEscan analysis relative to control
Homo sapiens = organism: Homo sapiens; test: Inhibition of ACVR1 (unknown origin) assessed as residual activity at 100 nM by KINOMEscan analysis relative to control
[2] = biological target: BMP-2-inducible protein kinase (Homo sapiens) (UniProt Q9NSY1); test: Inhibition of BIKE (unknown origin) assessed as residual activity at 100 nM by KINOMEscan analysis relative to control
[3] = biological target: Tyrosine-protein kinase BTK (Homo sapiens) (UniProt Q06187); test: Inhibition of BTK (unknown origin) assessed as residual activity at 100 nM by KINOMEscan analysis relative to control
[4] = biological target: CDK4/Cyclin D3 (Homo sapiens) (UniProt P11802+P30281); test: Inhibition of CDK4-cyclin D3 (unknown origin) assessed as residual activity at 100 nM by KINOMEscan analysis relative to control; assay type: protein-complex assay
[5] = biological target: T1, Myotonin-protein kinase (Homo sapiens) (UniProt Q09013); test: Inhibition of DMPK (unknown origin) assessed as residual activity at 100 nM by KINOMEscan analysis relative to control
T1 sequence (whole entry): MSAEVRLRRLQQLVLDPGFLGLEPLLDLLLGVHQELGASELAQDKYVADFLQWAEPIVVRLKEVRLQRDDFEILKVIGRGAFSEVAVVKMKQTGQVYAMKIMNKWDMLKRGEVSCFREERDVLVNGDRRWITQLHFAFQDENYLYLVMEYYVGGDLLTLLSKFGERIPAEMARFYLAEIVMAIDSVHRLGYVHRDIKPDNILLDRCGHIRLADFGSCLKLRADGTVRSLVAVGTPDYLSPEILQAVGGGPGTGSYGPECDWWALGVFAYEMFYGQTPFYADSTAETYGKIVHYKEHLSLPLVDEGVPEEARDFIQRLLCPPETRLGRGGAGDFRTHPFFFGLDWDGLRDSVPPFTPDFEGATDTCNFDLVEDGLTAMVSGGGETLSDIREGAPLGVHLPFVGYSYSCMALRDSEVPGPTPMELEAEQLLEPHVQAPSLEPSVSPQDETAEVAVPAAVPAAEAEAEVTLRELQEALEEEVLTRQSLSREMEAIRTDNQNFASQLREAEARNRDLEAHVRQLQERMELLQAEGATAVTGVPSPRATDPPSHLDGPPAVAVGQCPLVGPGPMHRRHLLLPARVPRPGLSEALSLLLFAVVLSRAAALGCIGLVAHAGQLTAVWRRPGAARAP

[6] = biological target: T2, Ephrin type-A receptor 6 (Homo sapiens) (UniProt Q9UF33); test: Inhibition of EPHA6 (unknown origin) assessed as residual activity at 100 nM by KINOMEscan analysis relative to control
T2 sequence (whole entry): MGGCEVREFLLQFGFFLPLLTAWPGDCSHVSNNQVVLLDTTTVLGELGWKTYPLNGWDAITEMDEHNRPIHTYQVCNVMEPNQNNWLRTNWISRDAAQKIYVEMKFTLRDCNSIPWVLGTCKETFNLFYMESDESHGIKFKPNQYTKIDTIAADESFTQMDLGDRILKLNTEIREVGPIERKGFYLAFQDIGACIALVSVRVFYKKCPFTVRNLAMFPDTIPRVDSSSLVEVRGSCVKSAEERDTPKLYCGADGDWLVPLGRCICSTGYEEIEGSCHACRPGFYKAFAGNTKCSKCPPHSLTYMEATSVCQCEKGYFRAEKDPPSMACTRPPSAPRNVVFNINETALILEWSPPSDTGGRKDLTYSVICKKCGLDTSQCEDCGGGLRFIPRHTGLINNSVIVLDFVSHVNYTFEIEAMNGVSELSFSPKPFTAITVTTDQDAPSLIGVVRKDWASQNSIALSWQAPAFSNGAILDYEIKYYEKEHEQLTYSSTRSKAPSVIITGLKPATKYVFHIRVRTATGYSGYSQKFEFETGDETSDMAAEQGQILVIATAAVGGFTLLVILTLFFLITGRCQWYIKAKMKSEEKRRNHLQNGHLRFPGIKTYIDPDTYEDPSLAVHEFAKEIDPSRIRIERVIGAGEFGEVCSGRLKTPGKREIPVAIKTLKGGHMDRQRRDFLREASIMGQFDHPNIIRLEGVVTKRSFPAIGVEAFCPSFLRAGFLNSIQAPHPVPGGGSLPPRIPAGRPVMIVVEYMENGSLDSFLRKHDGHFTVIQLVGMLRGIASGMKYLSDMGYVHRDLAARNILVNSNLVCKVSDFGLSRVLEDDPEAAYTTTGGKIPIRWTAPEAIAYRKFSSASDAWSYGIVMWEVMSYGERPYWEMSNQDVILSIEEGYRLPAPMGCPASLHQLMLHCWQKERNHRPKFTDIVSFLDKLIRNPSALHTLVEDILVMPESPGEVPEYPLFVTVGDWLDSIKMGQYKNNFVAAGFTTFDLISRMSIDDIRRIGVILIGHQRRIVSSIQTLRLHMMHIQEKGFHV

[7] = biological target: Receptor tyrosine-protein kinase erbB-3 (Homo sapiens) (UniProt P21860); test: Inhibition of ERBB3 (unknown origin) assessed as residual activity at 100 nM by KINOMEscan analysis relative to control
[8] = biological target: Tyrosine-protein kinase Fgr (Homo sapiens) (UniProt P09769); test: Inhibition of FGR (unknown origin) assessed as residual activity at 100 nM by KINOMEscan analysis relative to control
[9] = biological target: T3, Mitogen-activated protein kinase 12 (Homo sapiens) (UniProt P53778); test: Inhibition of p38-gamma (unknown origin) assessed as residual activity at 100 nM by KINOMEscan analysis relative to control
T3 sequence (whole entry): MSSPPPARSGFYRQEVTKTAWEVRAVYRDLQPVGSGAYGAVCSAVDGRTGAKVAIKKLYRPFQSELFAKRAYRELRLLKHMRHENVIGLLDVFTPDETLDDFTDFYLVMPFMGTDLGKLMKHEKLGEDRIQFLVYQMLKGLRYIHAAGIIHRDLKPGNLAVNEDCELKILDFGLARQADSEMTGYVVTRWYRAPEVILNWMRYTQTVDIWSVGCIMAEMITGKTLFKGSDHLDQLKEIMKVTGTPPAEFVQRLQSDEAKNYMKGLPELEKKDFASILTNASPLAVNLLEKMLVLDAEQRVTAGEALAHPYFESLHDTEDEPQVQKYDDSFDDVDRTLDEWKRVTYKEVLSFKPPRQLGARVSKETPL

[10] = biological target: Serine/threonine-protein kinase SBK1 (Homo sapiens) (UniProt Q52WX2); test: Inhibition of SBK1 (unknown origin) assessed as residual activity at 100 nM by KINOMEscan analysis relative to control
[11] = biological target: Myosin light chain kinase 3 (Homo sapiens) (UniProt Q32MK0); test: Inhibition of MLCK (unknown origin) assessed as residual activity at 100 nM by KINOMEscan analysis relative to control
Myosin light chain kinase 3 (Homo sapiens), sequence (Q32MK0 whole entry, looked up): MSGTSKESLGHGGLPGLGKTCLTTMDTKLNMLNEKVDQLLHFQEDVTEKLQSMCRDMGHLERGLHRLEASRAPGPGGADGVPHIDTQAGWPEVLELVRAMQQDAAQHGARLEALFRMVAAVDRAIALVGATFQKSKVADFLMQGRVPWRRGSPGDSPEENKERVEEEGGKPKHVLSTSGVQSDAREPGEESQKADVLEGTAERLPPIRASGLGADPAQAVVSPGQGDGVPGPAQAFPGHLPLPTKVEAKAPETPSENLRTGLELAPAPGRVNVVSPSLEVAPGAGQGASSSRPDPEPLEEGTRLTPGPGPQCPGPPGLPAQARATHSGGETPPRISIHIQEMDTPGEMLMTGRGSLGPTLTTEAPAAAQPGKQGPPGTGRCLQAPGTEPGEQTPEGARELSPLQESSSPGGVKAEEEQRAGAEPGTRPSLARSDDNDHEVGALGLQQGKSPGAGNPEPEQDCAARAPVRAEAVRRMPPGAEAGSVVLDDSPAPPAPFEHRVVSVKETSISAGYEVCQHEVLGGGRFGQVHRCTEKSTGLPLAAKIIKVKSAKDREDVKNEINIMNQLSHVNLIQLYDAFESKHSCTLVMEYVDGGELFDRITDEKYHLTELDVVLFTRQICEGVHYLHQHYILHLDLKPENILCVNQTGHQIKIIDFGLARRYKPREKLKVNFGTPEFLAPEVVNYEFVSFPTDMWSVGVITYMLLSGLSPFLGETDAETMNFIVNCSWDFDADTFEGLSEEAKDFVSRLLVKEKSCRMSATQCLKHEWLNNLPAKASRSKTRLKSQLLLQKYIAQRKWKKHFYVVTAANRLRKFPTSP

Tyrosine-protein kinase Fgr (Homo sapiens), sequence (P09769 2-529 limits assumed): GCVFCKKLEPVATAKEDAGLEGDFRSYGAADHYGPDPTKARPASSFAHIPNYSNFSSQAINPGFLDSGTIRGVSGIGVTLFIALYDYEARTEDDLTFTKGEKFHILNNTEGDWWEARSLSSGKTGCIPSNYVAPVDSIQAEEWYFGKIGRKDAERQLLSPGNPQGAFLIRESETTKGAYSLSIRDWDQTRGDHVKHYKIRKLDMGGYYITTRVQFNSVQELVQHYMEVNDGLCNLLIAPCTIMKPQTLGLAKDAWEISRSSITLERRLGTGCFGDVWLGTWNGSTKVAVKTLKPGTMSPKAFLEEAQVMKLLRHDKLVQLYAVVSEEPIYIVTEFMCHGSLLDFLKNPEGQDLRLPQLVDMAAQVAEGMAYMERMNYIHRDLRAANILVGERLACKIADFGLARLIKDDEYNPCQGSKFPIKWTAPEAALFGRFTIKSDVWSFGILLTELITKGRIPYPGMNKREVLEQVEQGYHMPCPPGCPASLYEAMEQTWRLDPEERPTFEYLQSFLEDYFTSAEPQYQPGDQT
Tyrosine-protein kinase BTK (Homo sapiens), sequence (Q06187 whole entry): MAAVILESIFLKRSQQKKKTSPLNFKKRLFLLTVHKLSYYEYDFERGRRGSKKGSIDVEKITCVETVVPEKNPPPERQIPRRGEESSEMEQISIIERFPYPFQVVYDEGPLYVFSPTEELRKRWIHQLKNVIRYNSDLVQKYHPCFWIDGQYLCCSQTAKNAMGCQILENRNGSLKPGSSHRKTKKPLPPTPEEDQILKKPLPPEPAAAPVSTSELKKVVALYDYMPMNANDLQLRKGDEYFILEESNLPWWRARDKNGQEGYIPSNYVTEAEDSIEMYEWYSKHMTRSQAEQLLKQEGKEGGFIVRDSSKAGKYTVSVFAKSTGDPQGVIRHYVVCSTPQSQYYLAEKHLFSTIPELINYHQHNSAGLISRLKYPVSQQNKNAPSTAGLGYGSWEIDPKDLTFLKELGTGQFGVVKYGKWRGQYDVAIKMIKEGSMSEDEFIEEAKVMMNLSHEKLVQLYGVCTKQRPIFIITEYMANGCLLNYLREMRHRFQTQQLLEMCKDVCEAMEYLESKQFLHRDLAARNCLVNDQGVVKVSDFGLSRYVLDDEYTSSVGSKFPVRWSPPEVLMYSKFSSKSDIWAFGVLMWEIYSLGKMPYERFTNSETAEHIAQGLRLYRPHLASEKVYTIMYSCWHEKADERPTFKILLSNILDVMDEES
Serine/threonine-protein kinase SBK1 (Homo sapiens), sequence (Q52WX2 whole entry): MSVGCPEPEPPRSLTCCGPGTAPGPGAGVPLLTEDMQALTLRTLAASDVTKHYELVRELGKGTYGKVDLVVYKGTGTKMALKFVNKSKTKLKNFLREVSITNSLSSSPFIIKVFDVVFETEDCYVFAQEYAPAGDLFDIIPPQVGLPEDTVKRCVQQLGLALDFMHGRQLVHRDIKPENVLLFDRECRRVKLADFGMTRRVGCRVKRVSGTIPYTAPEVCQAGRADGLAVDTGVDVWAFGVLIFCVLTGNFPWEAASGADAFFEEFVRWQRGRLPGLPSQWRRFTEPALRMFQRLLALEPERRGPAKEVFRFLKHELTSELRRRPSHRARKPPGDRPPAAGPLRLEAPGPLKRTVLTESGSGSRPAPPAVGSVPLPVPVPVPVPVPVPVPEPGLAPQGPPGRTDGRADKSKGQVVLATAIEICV
Receptor tyrosine-protein kinase erbB-3 (Homo sapiens), sequence (P21860 whole entry): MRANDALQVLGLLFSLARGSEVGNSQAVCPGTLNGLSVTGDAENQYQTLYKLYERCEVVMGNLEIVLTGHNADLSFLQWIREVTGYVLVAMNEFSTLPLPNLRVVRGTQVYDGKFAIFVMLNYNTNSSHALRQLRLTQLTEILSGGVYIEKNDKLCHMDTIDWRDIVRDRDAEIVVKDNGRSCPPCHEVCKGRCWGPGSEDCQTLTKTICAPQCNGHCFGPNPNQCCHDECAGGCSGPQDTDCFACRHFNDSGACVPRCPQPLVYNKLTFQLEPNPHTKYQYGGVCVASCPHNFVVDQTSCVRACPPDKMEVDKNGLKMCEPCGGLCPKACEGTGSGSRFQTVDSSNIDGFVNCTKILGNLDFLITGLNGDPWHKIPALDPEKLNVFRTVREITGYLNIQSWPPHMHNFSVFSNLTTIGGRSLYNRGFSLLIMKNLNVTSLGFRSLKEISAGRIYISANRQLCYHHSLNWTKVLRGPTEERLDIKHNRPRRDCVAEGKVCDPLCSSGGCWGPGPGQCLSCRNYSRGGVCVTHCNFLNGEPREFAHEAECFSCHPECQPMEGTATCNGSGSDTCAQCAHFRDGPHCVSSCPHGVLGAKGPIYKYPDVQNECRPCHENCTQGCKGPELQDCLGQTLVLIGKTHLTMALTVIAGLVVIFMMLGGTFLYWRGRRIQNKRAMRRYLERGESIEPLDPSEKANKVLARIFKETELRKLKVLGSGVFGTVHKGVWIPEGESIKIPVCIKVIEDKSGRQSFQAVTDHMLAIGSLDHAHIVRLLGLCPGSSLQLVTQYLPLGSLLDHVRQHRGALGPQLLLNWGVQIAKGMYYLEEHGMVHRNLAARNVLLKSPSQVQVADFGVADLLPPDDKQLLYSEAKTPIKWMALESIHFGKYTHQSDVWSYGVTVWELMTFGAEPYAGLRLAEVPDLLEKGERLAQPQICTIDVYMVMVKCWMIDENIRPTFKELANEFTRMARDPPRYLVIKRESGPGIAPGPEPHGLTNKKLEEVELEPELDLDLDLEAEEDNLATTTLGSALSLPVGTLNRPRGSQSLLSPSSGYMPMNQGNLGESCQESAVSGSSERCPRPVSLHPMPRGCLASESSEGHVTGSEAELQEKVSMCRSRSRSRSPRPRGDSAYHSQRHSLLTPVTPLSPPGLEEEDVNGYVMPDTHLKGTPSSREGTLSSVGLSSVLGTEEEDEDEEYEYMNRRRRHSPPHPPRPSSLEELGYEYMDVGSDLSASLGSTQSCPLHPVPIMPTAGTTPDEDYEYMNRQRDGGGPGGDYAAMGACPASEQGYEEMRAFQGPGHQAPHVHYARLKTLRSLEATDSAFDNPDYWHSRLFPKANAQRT
BMP-2-inducible protein kinase (Homo sapiens), sequence (Q9NSY1 whole entry, looked up): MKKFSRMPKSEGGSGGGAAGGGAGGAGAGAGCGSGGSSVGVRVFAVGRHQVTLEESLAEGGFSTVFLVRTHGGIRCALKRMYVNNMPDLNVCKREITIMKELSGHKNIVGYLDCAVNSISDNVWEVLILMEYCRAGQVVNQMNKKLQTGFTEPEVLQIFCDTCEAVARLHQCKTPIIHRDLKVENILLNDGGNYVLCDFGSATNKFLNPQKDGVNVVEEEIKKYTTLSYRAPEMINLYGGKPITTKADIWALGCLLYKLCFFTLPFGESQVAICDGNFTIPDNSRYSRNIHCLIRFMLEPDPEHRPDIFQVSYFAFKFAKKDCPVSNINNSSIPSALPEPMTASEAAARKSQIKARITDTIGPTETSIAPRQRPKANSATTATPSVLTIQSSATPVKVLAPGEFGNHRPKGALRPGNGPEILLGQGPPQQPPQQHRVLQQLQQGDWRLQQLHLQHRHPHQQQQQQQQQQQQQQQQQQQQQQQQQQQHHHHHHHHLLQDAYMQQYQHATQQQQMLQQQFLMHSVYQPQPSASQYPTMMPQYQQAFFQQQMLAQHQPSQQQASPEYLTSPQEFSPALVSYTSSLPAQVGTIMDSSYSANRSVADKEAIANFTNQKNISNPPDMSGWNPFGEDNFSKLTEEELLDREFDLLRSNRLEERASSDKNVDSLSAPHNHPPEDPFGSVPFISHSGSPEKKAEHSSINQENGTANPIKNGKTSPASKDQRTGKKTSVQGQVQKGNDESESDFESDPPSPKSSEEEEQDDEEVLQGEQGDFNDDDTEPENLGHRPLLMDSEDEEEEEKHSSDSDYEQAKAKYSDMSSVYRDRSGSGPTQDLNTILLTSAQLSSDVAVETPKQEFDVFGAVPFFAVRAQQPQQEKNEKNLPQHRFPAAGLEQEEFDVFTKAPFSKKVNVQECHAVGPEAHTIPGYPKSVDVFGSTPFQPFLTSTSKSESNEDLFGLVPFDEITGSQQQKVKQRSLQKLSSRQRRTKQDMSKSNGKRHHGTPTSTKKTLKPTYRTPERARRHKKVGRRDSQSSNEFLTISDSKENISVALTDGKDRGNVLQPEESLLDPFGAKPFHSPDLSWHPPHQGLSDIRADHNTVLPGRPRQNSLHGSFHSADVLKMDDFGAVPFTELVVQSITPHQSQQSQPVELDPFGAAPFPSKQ

Structure (SMILES)	Activity [1] [%]	Activity (Homo sapiens) [%]	Activity [2] [%]	Activity [3] [%]	Activity [4] [%]	Activity [5] [%]	Activity [6] [%]	Activity [7] [%]	Activity [8] [%]	Activity [9] [%]	Activity [10] [%]	Activity [11] [%]
COc1cc2nc(C)nc(N[C@H](C)c3cccc(-c4cn[nH]c4)c3)c2cc1OC	86	–	–	–	–	–	–	–	–	–	–	–
COc1cc2ncnc(N[C@H](C)c3cccc4ccccc34)c2cc1OC	–	83	93	95	100	100	77	89	81	96	81	97
